One may read the Ki as a measure of affinity in units of concentration, obtained from inhibition or displacement. In general, inhibition refers to the change of the read-out against control, counted positive when it falls. Read a low inhibition as a response near the control. By % Inhibition is commonly meant the drop in the measured response relative to a control, in per cent. A high value points to strong suppression.

For one assay, the target named is T1, human cloned 5-HT6 receptors (Homo sapiens, UniProt P50406).
T1 construct: expressed in transfected cells; host or cells: HeLa cells
T1 sequence (P50406 whole entry): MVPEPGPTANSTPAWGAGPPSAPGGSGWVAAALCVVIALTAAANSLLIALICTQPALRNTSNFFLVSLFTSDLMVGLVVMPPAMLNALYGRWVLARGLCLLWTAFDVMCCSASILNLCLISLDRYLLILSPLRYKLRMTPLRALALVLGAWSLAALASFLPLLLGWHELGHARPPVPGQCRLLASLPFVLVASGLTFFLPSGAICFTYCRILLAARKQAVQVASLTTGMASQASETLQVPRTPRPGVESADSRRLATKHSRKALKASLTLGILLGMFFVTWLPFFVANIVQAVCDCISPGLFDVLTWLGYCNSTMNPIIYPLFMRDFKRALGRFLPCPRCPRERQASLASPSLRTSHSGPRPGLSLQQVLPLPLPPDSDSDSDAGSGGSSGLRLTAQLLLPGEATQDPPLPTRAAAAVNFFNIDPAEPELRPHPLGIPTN
It counts as binding. To be noted: [3H]-LSD 3.0 nM, Hela cell membranes; read-out: 5-HT6 Binding Ki. As for the experimental part:
This operation is repeated.
The reaction is allowed to proceed in the dark for 120 min at room temperature, at which time, the bound ligand-receptor complex is filtered off on a 96 well unifilter with a Packard Filtermate® 196 Harvester. The bound complex caught on the filter disk is allowed to air dry and the radioactivity is measured in a Packard TopCount® equipped with six photomultiplier detectors, after the addition of 40.0 μl Microscint®-20 scintillant to each shallow well. The unifilter plate is heat-sealed and counted in a PackardTopCount® with a tritium efficiency of 31.0%.
Specific binding to the 5-HT6 receptor is defined as the total radioactivity bound less the amount bound in the presence of 10.0 μM unlabeled methiothepin. Binding in the presence of varying concentrations of test compound is expressed as a percentage of specific binding in the absence of test compound. The results are plotted as logit % bound versus log concentration of test compound. Nonlinear regression analysis of data points with a computer assisted program Prism® yields both the IC50 and the Ki values of test compounds with 95% confidence limits.
The amount of displacement by the test compound is given in percent (%) inhibition and is derived from the following equation: [formula] where B0 is the amount of CPM bound in the presence of the testing agent. NSB represents the CPM bound in the presence of a saturating concentration of a displacer and TB represents the total amount of CPM bound at zero (0) concentration of test compound.
Alternatively, a linear regression line of decline of data points is plotted, from which the IC50 value can be read off and the Ki value determined by solving the following equation: [formula] where L is the concentration of the radioactive ligand used and KD is the dissociation constant of the ligand for the receptor, both expressed in nM.
As for `CC(=NNC(=N)N)c1c(-c2ccccc2)n(C)c2ccccc12` [Example 86, 2-[1-(1-methyl-2-phenyl-1H-indol-3-yl)-ethylidene]hydrazinecarboximidamide], the Ki came to 19 nM.

As to `CN(N=Cc1c(-c2ccccc2)n(C)c2ccccc12)C1=NCCN1` [Example 90, N-(4,5-dihydro-1H-imidazol-2-yl)-N′-[(1-methyl-2-phenyl-1H-indol-3-yl)-methylene]-N-methylhydrazine], the Ki is 11 nM.

Still in this assay, the particulars now being: test compound dose 1000 nM; displacement of [3H]-LSD.
`Cn1c(-c2ccccc2)c(C(Cc2ccccc2)=NNC(=N)N)c2ccccc21` [Example 83, 2-[1-(1-methyl-2-phenyl-1H-indol-3-yl)-2-phenyl-ethylidene]hydrazinecarboximidamide] showed an inhibition at 1 µM of 31%.

With `N=C(N)NN=C(Cc1ccccc1)c1c(-c2ccccc2)n(-c2ccccc2)c2ccccc12` [Example 84, 2-[1-(1,2-diphenyl-1H-indol-3-yl)-2-phenyl-ethylidene]hydrazinecarboximidamide], the inhibition at 1 µM was found to be 22.9%. The same measure, in the same setting: under `CC(=NNC(=N)N)c1c(-c2ccccc2)n(C)c2ccccc12` [Example 86, 2-[1-(1-methyl-2-phenyl-1H-indol-3-yl)-ethylidene]hydrazinecarboximidamide] stands 99.4%; under `CC(=NNC(=N)N)c1c(-c2ccccc2)n(-c2ccccc2)c2ccccc12` [Example 87, 2-[1-(1,2-diphenyl-1H-indol-3-yl)-ethylidene]hydrazinecarboximidamide], 31.3%. Still for that read-out and setting: under `Cn1c(-c2ccccc2)c(C=NNC(=N)N)c2ccccc21` [Example 89, 2-[(1-methyl-2-phenyl-1H-indol-3-yl)-methylene]hydrazinecarboximidamide] stands 70.6%.

Take `CN(N=Cc1c(-c2ccccc2)n(C)c2ccccc12)C1=NCCN1` [Example 90, N-(4,5-dihydro-1H-imidazol-2-yl)-N′-[(1-methyl-2-phenyl-1H-indol-3-yl)-methylene]-N-methylhydrazine]: the inhibition at 1 µM came to 99.9%.

`N=C(N)NN=Cc1c(-c2ccccc2)n(-c2ccccc2)c2ccccc12` [Example 91, 2-[(1,2-diphenyl-1H-indol-3-yl)-methylene]hydrazinecarboximidamide] displayed an inhibition at 1 µM of 24%. Still for that read-out and setting: as for `CN(N=Cc1c(-c2ccccc2)n(-c2ccccc2)c2ccccc12)C1=NCCN1` [Example 92, N-(4,5-dihydro-1H-imidazol-2-yl)-N′-[(1,2-diphenyl-1H-indol-3-yl)-methylene]-N-methylhydrazine], the figure is 17.8%; as for `CC(=NNC(=N)N)c1c(-c2ccc(Cl)cc2)n(Cc2ccccc2)c2ccccc12` [Example 93, 2-{1-[1-benzyl-2-(4-chloro-phenyl)-1H-indol-3-yl]-ethylidene}hydrazinecarboximidamide], 22.3%; as for `N=C(N)NN=Cc1c(-c2ccc(Cl)cc2)n(Cc2ccccc2)c2ccccc12` [Example 94, 2-{[1-benzyl-2-(4-chloro-phenyl)-1H-indol-3-yl]-methylene}hydrazinecarboximidamide], 19.7%. Regarding `CN(N=Cc1c(-c2ccc(Cl)cc2)n(Cc2ccccc2)c2ccccc12)C1=NCCN1` [Example 95, N-{[1-benzyl-2-(4-chloro-phenyl)-1H-indol-3-yl]-methylene}-N′-(4,5-dihydro-1H-imidazol-2-yl)-N-methylhydrazine], the “% Inhibition” value is listed as 20.0%. As for `N=C(N)NN=Cc1c(-c2ccc(Cl)cc2)n(Cc2ccccc2Cl)c2ccccc12` [Example 96, 2-{[1-(2-chloro-benzyl)-2-(4-chloro-phenyl)-1H-indol-3-yl]-methylene}hydrazinecarboximidamide], the inhibition at 1 µM was 15.6%.

As for `CN(N=Cc1c(-c2ccc(Cl)cc2)n(Cc2ccccc2Cl)c2ccccc12)C1=NCCN1` [Example 97, N-{[1-(2-chloro-benzyl)-2-(4-chloro-phenyl)-1H-indol-3-yl]-methylene}-N′-(4,5-dihydro-1H-imidazol-2-yl)-N-methylhydrazine], the “% Inhibition” value was 0.4%. In turn, `Cc1ccc(Cn2c(-c3ccc(Cl)cc3)c(C=NNC(=N)N)c3ccccc32)cc1` [Example 98, 2-{[2-(4-chloro-phenyl)-1-(4-methyl-benzyl)-1H-indol-3-yl]-methylene}hydrazinecarboximidamide] had an inhibition at 1 µM of 21.1%. For the compound `Cc1ccc(Cn2c(-c3ccc(Cl)cc3)c(C=NN(C)C3=NCCN3)c3ccccc32)cc1` [Example 99, N-{[2-(4-chloro-phenyl)-1-(4-methyl-benzyl)-1H-indol-3-yl]-methylene}-N′-(4,5-dihydro-1H-imidazol-2-yl)-N-methylhydrazine], the “% Inhibition” value was 5.7%.

As for `CC(=NNC(=N)N)c1c(-c2ccc(Cl)cc2)n(Cc2csc(C)n2)c2ccccc12` [Example 100, 2-(1-{2-(4-chlorophenyl)-1-[(2-methyl-1,3-thiazol-4-yl)methyl]-1H-indol-3-yl}ethylidene)-1hydrazinecarboximidamide], the inhibition at 1 µM was 31.5%.

`Cc1nc(Cn2c(-c3ccc(Cl)cc3)c(C=NNC(=N)N)c3ccccc32)cs1` [Example 101, 2-({2-(4-chlorophenyl)-1-[(2-methyl-1,3-thiazol-4-yl)methyl]-1H-indol-3-yl}methylidene)-1hydrazinecarboximidamide]: the inhibition at 1 µM was determined as 24%.

The compound `Cc1nc(Cn2c(-c3ccc(Cl)cc3)c(C=CNNC3=NCCN3)c3ccccc32)cs1` [Example 102, {[2-(4-chlorophenyl)-1((2-methyl-thiazol-4-yl)methyl)-1H-indol-3-yl]methylene}-N′-(4,5-dihydro-1H-imidazol-2-yl)-N-methylhydrazine] gave an inhibition at 1 µM of 62.7%. Same read-out and setting: as for `CCn1c(-c2ccc(Cl)cc2)c(C=NNC(=N)N)c2ccccc21` [Example 103, 2-{[2-(4-chloro-phenyl)-1-ethyl-1H-indol-3-yl]-methylene}hydrazinecarboximidamide], the figure is 80.1%. For the compound `CCn1c(-c2ccc(Cl)cc2)c(C=NN(C)C2=NCCN2)c2ccccc21` [Example 104, N-{[2-(4-chloro-phenyl)-1-ethyl-1H-indol-3-yl]-methylene}-N′-(4,5-dihydro-1H-imidazol-2-yl)-N-methylhydrazine], the “% Inhibition” value was determined as 100.0%. For `CC(=NNC(=N)N)c1c(-c2ccc(Cl)cc2)n(CCC#N)c2ccccc12` [Example 107, 2-{1-[2-(4-chloro-phenyl)-1-(2-cyano-ethyl)-1H-indol-3-yl]-ethylidene}hydrazinecarboximidamide], at 1 µM the inhibition was 87.2%.

`N#CCCn1c(-c2ccc(Cl)cc2)c(C=NNC(=N)N)c2ccccc21` [Example 108, 2-{[2-(4-chloro-phenyl)-1-(2-cyano-ethyl)-1H-indol-3-yl]-methylene}hydrazinecarboximidamide]: testing at 1 µM gave an inhibition of 92%.

Turning to `CN(N=Cc1c(-c2ccc(Cl)cc2)n(CCC#N)c2ccccc12)C1=NCCN1` [Example 109, N-{[2-(4-chloro-phenyl)-1-(2-cyano-ethyl)-1H-indol-3-yl]-methylene}-N′-(4,5-dihydro-1H-imidazol-2-yl)-N-methylhydrazine], the “% Inhibition” value worked out at 99.1%. The same measure, in the same setting: under `N=C(N)NN=Cc1c(-c2ccc(Cl)cc2)n(CCc2ccccc2)c2ccccc12` [Example 110, 2-{[2-(4-chloro-phenyl)-1-(2-phenethyl)-1H-indol-3-yl]-methylene}hydrazinecarboximidamide] stands 20.9%; under `CN(N=Cc1c(-c2ccc(Cl)cc2)n(CCc2ccccc2)c2ccccc12)C1=NCCN1` [Example 111, N-{[2-(4-chloro-phenyl)-1-(2-phenethyl)-1H-indol-3-yl]-methylene}-N′-(4,5-dihydro-1H-imidazol-2-yl)-N-methylhydrazine], 37.5%.

For the origin of these results see patent publication US6951881B2, “(1-substituted-indol-3-yl) alkylidenehydrazinecarboximidamide derivatives as 5-hydroxytryptamine-6 ligands” (Wyeth, priority 2002, dated 2005).
